The values below are quoted from earlier work in patent US20090317456A1, “USE OF ONCOLYTIC VIRUSES AND ANTIANGIOGENIC AGENTS IN THE TREATMENT OF CANCER” (priority 2006, published 2009).

For data set [1], the system named is VEGFR tyrosine kinases, including VEGFR-3. The note with it: all known VEGFR tyrosine kinases.
The test system of data set [2] is metastatic colorectal cancer. As to conditions: bevacizumab added to FOLFOX or FOLFIRI; prolonged from 12 months without.

`Clc1ccc(Nc2nnc(Cc3ccncc3)c3ccccc23)cc1` [PTK 787/ZK 222584]: the “inhibition of VEGFR tyrosine kinases” value in data set [1] was “lower nanomolar range”. In addition, the “inhibition of PDGFR” value in the data set with PDGFR is on record as “nanomolar range”.

Consider “bevacizumab: humanized anti-VEGF monoclonal antibody (Avastin, Genentech)”, for which the median survival in data set [2] was 20 months.
